Data reported in US10787425B2, “Thiazolidinedione derivative and use thereof” (INDUSTRY-ACADEMIC COOPERATION FOUNDATION CHOSUN UNIVERSITY, priority 2016, dated 2020).

Assays:
[1] = target: 15-PGDH (Homo sapiens (Human), UniProt P15428); assay: 15-PGDH inhibitory activity (NADH at 340 nm); format: biochemical; conditions: concentration inhibiting 50% of 15-PGDH activity; purified 15-PGDH, 21 μM PGE2, 0.25 mM NAD+
Method in brief: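 GST-purified human 15-PGDH (E. coli BL-21 LysS, 10 μg) with 21 μM PGE2 and 0.25 mM NAD+ in 50 mM Tris-HCl pH 7.5, 0.1 mM DTT. Compound tested at 0.0001–64 μM; NADH formation read by absorbance at 340 nm against a standard curve.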

[2] = test system: HaCaT cells; assay: Wound treatment (scratch) assay in HaCaT cells; format: cell-based, human; conditions: 48 hours
Experimental: HaCaT cells subcultured for about one week in DMEM [containing+8% FBS, AA] medium were inoculated in a 6-well plate at 2×10^5 cells/mL ([…]). Then, the cells were cultured for about 24 hours until the cells reached 80% confluency. HaCaT cells are an adult human skin-derived and spontaneously […] aneuploid immortal keratinocyte cell line. After the culture, the cells were washed with 1×PBS buffer and the used medium was replaced with an FBS and antibiotic-free medium. Then, mitomycin was added thereto at a concentration of 30 μg/mL and the cells were cultured for 2 hours. Then, the cells were washed with 1×PBS buffer, and a cell monolayer on the bottom surface of each well was scratched by using a 200 μL pipette tip to harm the cells. Since some cells were washed away by the scratching, the plate was washed repeatedly with 1×PBS buffer and then, filled with DMEM medium containing FBS and AA, and photographed at the time of 0 hour.
The 15-PGDH inhibitor was then injected at a concentration of 5 μM or the indicated concentration. For comparison with the results, in the case of the negative control, nothing was added, and in the case of the positive control, TGF-β1 was injected at a concentration of 1 ng/mL and then, the cells were cultured for 48 hours. After 48 hours, the picture of the cells was taken again to confirm how much the cells were grown due to the drug effect.

[3] = test system: A549 cells; assay: Measurement of PGE2 concentration in A549 cell medium (ELISA); format: cell-based, human; conditions: for Increment %: PGE2 concentration versus PBS control, 5 μM, 12 hours; for PGE2 concentration: inhibitor 5 μM, medium collected after 12 hours, ELISA
Method in brief: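 A549 cells in RPMI 1640 with 8% FBS, seeded at 5×10^5 cells/well and grown 24 h at 37° C, 5% CO2; at ~80% confluence treated with 15-PGDH inhibitor at 5 μM in PBS (PBS-only negative control). After 12 h, PGE2 in the medium was measured by ELISA against a standard curve.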

[4] = 0.5 μM to 5 μM, versus control (FIGS. 4 to 6)
[5] = 5 μM, versus control (FIGS. 1 to 3)

Sequence of 15-PGDH (P15428 whole entry): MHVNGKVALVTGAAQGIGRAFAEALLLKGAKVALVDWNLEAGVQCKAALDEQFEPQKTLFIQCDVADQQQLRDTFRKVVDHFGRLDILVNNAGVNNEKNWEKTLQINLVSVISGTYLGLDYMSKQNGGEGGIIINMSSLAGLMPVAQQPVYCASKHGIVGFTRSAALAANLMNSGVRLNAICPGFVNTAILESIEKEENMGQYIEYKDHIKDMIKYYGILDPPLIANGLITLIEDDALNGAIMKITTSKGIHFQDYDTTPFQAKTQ

O=C(CCCc1ccccc1)Oc1cccc(/C=C2\SC(=O)NC2=O)c1Cl [Compound 89, (Z)-2-chloro-3-((2,4-dioxothiazolidin-5-ylidene)methyl)phenyl 4-phenylbutanoate]
IC50 [1]: 25.1 nM
wound closure rate [2, 4]: significantly high wound closure rate
wound closure rate [2, 5]: significantly higher wound closure rates than the control
Increment % [3]: 398.2%
PGE2 concentration [3]: 1048.274 pg/mL

CCOc1cc(/C=C2\SC(=O)NC2=O)ccc1OC(=O)CCCc1ccccc1 [Compound 59, (Z)-4-((2,4-dioxothiazolidin-5-ylidene)methyl)-2-ethoxyphenyl 4-phenylbutanoate]
IC50 [1]: 43.9 nM
wound closure rate [2, 4]: significantly high wound closure rate
wound closure rate [2, 5]: significantly higher wound closure rates than the control
Increment % [3]: 579.34%
PGE2 concentration [3]: 1081.055 pg/mL

O=C1NC(=O)/C(=C/c2ccc(OC(=O)C3CC3)c(Cl)c2)S1 [Compound 1, (Z)-2-chloro-4-((2,4-dioxothiazolidin-5-ylidene)methyl)phenyl cyclopropanecarboxylate]
IC50 [1]: 2090 nM
wound closure rate [2, 5]: significantly higher wound closure rates than the control
Increment % [3]: 3.47%
PGE2 concentration [3]: 283.2688 pg/mL

O=C(CCCc1ccccc1)Oc1ccc(/C=C2\SC(=O)NC2=O)cc1Cl [Compound 14, (Z)-2-chloro-4-((2,4-dioxothiazolidin-5-ylidene)methyl)phenyl 4-phenylbutanoate]
IC50 [1]: 22 nM
wound closure rate [2, 5]: significantly higher wound closure rates than the control
Increment % [3]: 389.99%
PGE2 concentration [3]: 586.3975 pg/mL
